From patent US12383514B2, “Nano-particles of menaquinone and methods of treatment” (Epizon, Inc., priority 2023, dated 2025)

Assays:
[1] = Dissolution testing of MK-7 nanosuspension in FeSSIF (study 1, 500 mL media); type: physicochemical; conditions: FeSSIF pH 5, 37 °C, 0.01 mg/mL drug load
Protocol: MK-7 (menaquinone-7, API) was suspended in an aqueous vehicle containing wetting agent sodium deoxycholat. The API concentration was 4% and the wetting agent concentration was 0.4% w/w. The API particles were milled to a particle size of 155 nm using zirconium milling beads and high shear Beadbeater mixing. The dissolution of the nanosuspension was tested at a concentration of 0.01 mg/mL, in triplicate, in pH 5 Fed State Simulated Intestinal Fluid (FeSSIF).
1. Clean dissolution system with DI water. Prepare FeSSIF: 2. Fill three (3) vessels with 500 mL of FeSSIF media and heat to 37° C. 3. Set up the following dissolution conditions:
4. Vortex suspension x for approximately one minute so that it is uniform. Weigh three (3) aliquots of 0.15 g of the 4% nanosuspension into a tared syringe to give a target 100% dissolution concentration of 0.01 mg/mL. Record weight. 5. Add weighed suspension directly to each vessel. 6. Start at Timer. 7. After five minutes, manually pull up 3 mL from each dissolution vessel in a syringe. 8. Attach a 0.2 μm filter to the syringe. 9. Transfer 2 mL of the dissolution sample back into the vessel. 10. Transfer the final 1 mL of sample to an amber HPLC vial and crimp seal. 11. Repeat Steps #8-11 at 10, 15, 30, 45 and 60 mins. 12. After the 60-minute time-point, mix each vessel for 5 minutes with a high shear mixer. 13. Repeat Step #8-11 and label this sample as ‘infinity’. 14. Run samples on HPLC 10 minutes HPLC method with replicate HPLC standard solutions.

[2] = Dissolution testing of MK-7 nanosuspension in FeSSIF (summary study 2); type: physicochemical; conditions: FeSSIF pH 5, 37 °C, 0.0104 mg/mL
Protocol: MK-7 (menaquinone-7, API) was suspended in an aqueous vehicle containing wetting agent, sodium deoxycholate. The API concentration was 4% and the wetting agent concentration was 0.4% w/w. The API particles were milled to a particle size of 156 nm by use of zirconium milling beads and high shear Beadbeater mixing. The dissolution of the nanosuspension was tested at a concentration of 0.01 mg/mL, in triplicate, in pH 5 FeSSIF.
Clean dissolution system with DI water. Fill 3× vessels with 500 mL of FeSSIF media and heat to 37° C. Set up the following dissolution conditions:
Vortex suspension×1 minute so that it is uniform. Weigh 3×0.15 g portions of nanosuspension into a tared syringe to give a target 100% dissolution concentration of 0.01 mg/mL. Record weight. Add weighed suspension directly to each vessel. Start at Timer.
At 5 mins, manually pull up 3 mL from each vessel in a syringe. Attach a 0.2 μm filter to the syringe. Transfer 2 mL of the aliquot back into the vessel. Transfer the final 1 mL of aliquot to an HPLC vial and crimp seal. Repeat Steps #8-11 at 10, 15, 30, 45 and 60 mins. After the 60-minute time-point, mix each vessel for 5 minutes with a high shear mixer. Repeat Step #8-11 and label this sample as ‘infinity’.
Run samples on HPLC 10-minute HPLC method with replicate HPLC STDs.

caspase-3 = conditions: concentration of 10 mcmol/L; cited from earlier work
PC12 cells = conditions: cited from earlier work
[3] = Infinity (after 5 min high shear mixing)

Row | Compound | % Dissolution (Avg of n = 3) [1, 3] [%] | % Dissolution (Avg of n = 3) ([1]; timepoint 0 min) [%] | % Dissolution (Avg of n = 3) ([1]; timepoint 10 min) [%] | % Dissolution (Avg of n = 3) ([1]; timepoint 15 min) [%] | % Dissolution (Avg of n = 3) ([1]; timepoint 30 min) [%] | % Dissolution (Avg of n = 3) ([1]; timepoint 45 min) [%] | % Dissolution (Avg of n = 3) ([1]; timepoint 60 min) [%] | % Dissolution (Avg of n = 3) [2, 3] [%] | % Dissolution (Avg of n = 3) ([2]; timepoint 0 min) [%] | % Dissolution (Avg of n = 3) ([2]; timepoint 5 min) [%] | % Dissolution (Avg of n = 3) ([2]; timepoint 10 min) [%] | % Dissolution (Avg of n = 3) ([2]; timepoint 15 min) [%] | % Dissolution (Avg of n = 3) ([2]; timepoint 30 min) [%] | % Dissolution (Avg of n = 3) ([2]; timepoint 45 min) [%] | % Dissolution (Avg of n = 3) ([2]; timepoint 60 min) [%] | decrease of caspase-3 activity (caspase-3) [fold] | neuronal death resulting from Aβ(1-42) (PC12 cells; PC12 cells) | apoptosis after exposure to H2O2 or Aβ(1-42) (PC12 cells; cells pretreated with vitamin K2)
1 | CC(C)=CCC/C(C)=C/CC/C(C)=C/CC/C(C)=C/CC/C(C)=C/CC/C(C)=C/CC/C(C)=C/CC1=C(C)C(=O)c2ccccc2C1=O [API, menaquinone-7] | 97.0 | 0 | 96.7 | 97.3 | 97.8 | 97.7 | 95.7 | 10.1 | 0.0 | 4.1 | 9.1 | 8.3 | 16.6 | 7.9 | 5.3 |  |  | 
2 | vitamin K2 |  |  |  |  |  |  |  |  |  |  |  |  |  |  |  | 2.5 | prevented neuronal death | significantly less apoptosis
